Publication PMC5740082, “Identification of a CARM1 Inhibitor with Potent In Vitro and In Vivo Activity in Preclinical Models of Multiple Myeloma” (Scientific Reports, 2017)
Read-outs that look alike come from different tables or passages of the source.

Columns and labels:
[1] = test system: PABP1 and SmB methylation in NCI-H929 cells; test: Western blot of cellular methyl marks, NCI-H929; details: Homo sapiens, NCI-H929, 96 h
Protocol: Methylation changes were measured at the well-characterized CARM1 substrates PABP1 and SmB[1],[10]. Changes in overall levels of asymmetric dimethyl arginine (aDMA) were assessed with an antibody that detects a generic aDMA motif. Levels of methylated analytes were quantified by densitometry and ratios of methylated to total protein were calculated to determine the cell biochemical IC50 values.
Cultured cells in linear/log phase growth were split to a seeding density of 2e5 cells/mL in 2–20mLs of media, depending on the yield required at the end of the growth period. Compound was diluted in DMSO and added to each culture vessel with a final DMSO concentration of 0.2%. Cells were allowed to grow for 96 hours. At the conclusion of each treatment period, cells were harvested by centrifugation (5 minutes, 1200 rpm), and cell pellets were rinsed once with PBS before being frozen on dry ice pending further processing.
Quantification of Western blots was performed using infra-red emitting secondary antibodies and detection with an ODYSSEY infrared imaging system.

[2] = test system: BT20; test: Long term proliferation assay (15 days); type: cell-based; details: Homo sapiens, BT-20, 360 h, read-out: EZM2302 IC50 (absolute, long term proliferation); BT20, BREAST, day 15
Protocol: (§1) Long term (14–15 day) cell proliferation assays were performed using the method previously described with adjustments to initial seeding densities depending on growth characteristics for each cell line[54],[55]. For 6 day proliferation studies, see Supplementary Methods.
(§2) Supplementary Table S2. Long term proliferation IC50 values of cell lines dosed with EZM2302. A panel of cell lines was treated with EZM2302fo r 15 da ys in a long term proliferation assa y. Abs olute IC 50 values were calculated in GraphPad Pri sm (non -linear regression anal ysis, top of the curves were fixed to 100%) for each line at d ay 15 .

[3] = test system: HCT116; test: Long term proliferation assay (15 days); type: cell-based; details: Homo sapiens, HCT-116, 360 h, read-out: EZM2302 IC50 (absolute, long term proliferation); HCT116, LARGE, day 15
Protocol: as §1, §2

[4] = test system: BT474; test: Long term proliferation assay (15 days); type: cell-based; details: Homo sapiens, BT-474, 360 h, read-out: EZM2302 IC50 (absolute, long term proliferation); BT474, BREAST, day 15
Protocol: as §1, §2

[5] = test system: VCAP; test: Long term proliferation assay (15 days); type: cell-based; details: Homo sapiens, 360 h, read-out: EZM2302 IC50 (absolute, long term proliferation), PROSTATE, day 15
Protocol: as §1, §2

[6] = test system: PC3; test: Long term proliferation assay (15 days); type: cell-based; details: Homo sapiens, PC-3, 360 h, read-out: EZM2302 IC50 (absolute, long term proliferation); PC3, PROSTATE, day 15
Protocol: as §1, §2

[7] = test system: LNCAP; test: Long term proliferation assay (15 days); type: cell-based; details: Homo sapiens, 360 h, read-out: EZM2302 IC50 (absolute, long term proliferation), PROSTATE, day 15
Protocol: as §1, §2

[8] = test system: MCF7; test: Long term proliferation assay (15 days); type: cell-based; details: Homo sapiens, 360 h, read-out: EZM2302 IC50 (absolute, long term proliferation); MCF7, BREAST, day 15
Protocol: as §1, §2

[9] = test system: HT29; test: Long term proliferation assay (15 days); type: cell-based; details: Homo sapiens, HT-29, 360 h, read-out: EZM2302 IC50 (absolute, long term proliferation); HT29, LARGE, day 15
Protocol: as §1, §2

[10] = Pharmacokinetic study in mouse
Protocol: An additional group of rats, cannulated in both the jugular and portal veins were dosed by oral gavage (10 mg/kg, in 0.5% methylcellulose in water). Approximately 110 μL of blood was taken from the animals by retro-orbital bleeding (mouse), tail vein (rat i.v.) or both jugular and portal vein sampling (rat p.o.) at pre-specified time intervals. The 2 h samples were split for parallel determination of blood and plasma concentration (ex vivo ratio). Blood samples were collected into K2-EDTA tubes and centrifuged to obtain plasma.

[11] = test system: OPM-2; test: Six-day cell proliferation assay (CellTiter-Glo); type: cell-based; details: Homo sapiens, 144 h; OPM-2 (MM), 6 days; read-out: Average day 6 gIC50
Protocol: (§3) Six-day cell proliferation assay
(§4) Optimal cell seeding density was determined empirically for each cell lines by examining the gro wth of a wide ran ge o f seedin g densities in a 3 84-well formatto identify conditio ns that permitted maximal and continued proliferation for 6 days. Cells were plat ed in duplicate plates 24 hours before treatment with a 20- point two-fold dilution series of compound or 0.15%
(§5) DMSO. Plates were incubated for 6 da ys at 37°C in 5% CO2. Cells were th en l ysed with CellTiter-Glo (CTG) (Pr omega) and chemiluminescent sign al was detected with an appropriat e microplate reader. In addition, an untreated plate of cells was harvested at the time of compound addition (T0) to quantif y the initial cell densit y. CTG values obtained after 6 days of treatment were expressed as a percent of the T0 value and plotted against compound concentration. […]
(§6) Supplementary Table S 3. […] A p anel […]
(§7) of cell lines was treated with EZM2302fo r 6da ys in a proliferation ass a y. Cell densit y (as assessed b y CellTiter-Gl o) at da y 0 was compared to day 6 to det ermine growth IC 50 values , calculated us i n g a f our parameter dose response equation.
(§8) Cell Type According to Cell Type Category Cell L ine Name gIC50 Average day 6 Standard Replicates

[12] = test system: SH-2; test: Six-day cell proliferation assay (CellTiter-Glo); type: cell-based; details: 144 h; SH-2 (AML), 6 days; read-out: Average day 6 gIC50
Protocol: as §3, §4, §5, §6, §7, §8

[13] = test system: TF-1; test: Six-day cell proliferation assay (CellTiter-Glo); type: cell-based; details: Homo sapiens, 144 h; TF-1 (AML M6; Erythroleukemia), 6 days; read-out: Average day 6 gIC50
Protocol: as §3, §4, §5, §6, §7, §8

[14] = test system: UT-7; test: Six-day cell proliferation assay (CellTiter-Glo); type: cell-based; details: Homo sapiens, UT7, 144 h; UT-7 (AML), 6 days; read-out: Average day 6 gIC50
Protocol: as §3, §4, §5, §6, §7, §8

[15] = test system: RPMI-8226; test: Six-day cell proliferation assay (CellTiter-Glo); type: cell-based; details: Homo sapiens, 144 h; RPMI-8226 (MM), 6 days; read-out: Average day 6 gIC50
Protocol: as §3, §4, §5, §6, §7, §8

[16] = test system: SHI-1; test: Six-day cell proliferation assay (CellTiter-Glo); type: cell-based; details: 144 h; SHI-1 (AML), 6 days; read-out: Average day 6 gIC50
Protocol: as §3, §4, §5, §6, §7, §8

[17] = test system: UCSD-AML1; test: Six-day cell proliferation assay (CellTiter-Glo); type: cell-based; details: 144 h; UCSD-AML1 (AML), 6 days; read-out: Average day 6 gIC50
Protocol: as §3, §4, §5, §6, §7, §8

[18] = test system: SK-MM-2; test: Six-day cell proliferation assay (CellTiter-Glo); type: cell-based; details: Homo sapiens, 144 h; SK-MM-2 (Plasma cell leukemia), 6 days; read-out: Average day 6 gIC50
Protocol: as §3, §4, §5, §6, §7, §8

[19] = test system: NOMO-1; test: Six-day cell proliferation assay (CellTiter-Glo); type: cell-based; details: Homo sapiens, 144 h; NOMO-1 (AML), 6 days; read-out: Average day 6 gIC50
Protocol: as §3, §4, §5, §6, §7, §8

[20] = test system: U266 B1; test: Six-day cell proliferation assay (CellTiter-Glo); type: cell-based; details: Homo sapiens, U-266, 144 h; U266 B1 (MM), 6 days; read-out: Average day 6 gIC50
Protocol: as §3, §4, §5, §6, §7, §8

[21] = test system: 40 protein kinases, lipid kinases and kinase mutants; test: KinaseProfiler screen (Millipore); type: biochemical; details: 10 μM
[22] = male, CD-1, mouse, plasma, iv, 2 mg/kg
[23] = male, CD-1, mouse, plasma, po, 10 mg/kg

CNC[C@@H](O)COc1ccc(Cl)c(-c2nc(-c3c(C)noc3C)c(C)c(N3CC4(CCN(C(=O)OC)CC4)C3)n2)c1 [EZM2302]
IC50 ([1]; read-out: IC50, PABP1me2a): 0.009 µM | IC50 ([1]; read-out: IC50, SmBme0): 0.031 µM | IC50 [2]: > 20 µM | IC50 [3]: > 20 µM | IC50 [4]: > 20 µM | IC50 [5]: > 20 µM | IC50 [6]: > 20 µM | IC50 [7]: 12.2 µM | IC50 [8]: > 20 µM | IC50 [9]: > 20 µM | CL (plasma clearance) ([10]; CD-1 mouse, IV Bolus 2 mg/kg, 2 mg/kg): 43.2 mL/min/kg | AUC(0-inf) [10, 22]: 772 ng·h/mL | AUC(0-t) [10, 22]: 767 ng·h/mL | Vd [10, 22]: 6.53 L/kg | half-life [10, 22]: 4.22 h | clearance ([10]; male, CD-1, mouse, plasma, iv, 2 mg/kg, CL (plasma clearance), IV Bolus 2 mg/kg): 43 mL/min/kg | AUC(0-inf) [10, 23]: 577 ng·h/mL | AUC(0-t) [10, 23]: 568 ng·h/mL | Cmax [10, 23]: 177 ng/mL | Tmax [10, 23]: 2 h | bioavailability [10, 23]: 15% | half-life [10, 23]: 4.55 h | IC50 [11]: 4.95 µM | IC50 [12]: > 36.7 µM | IC50 [13]: 25.9 µM | IC50 [14]: > 27.6 µM | IC50 [15]: > 26.1 µM | IC50 [16]: > 36 µM | IC50 [17]: > 36.7 µM | IC50 [18]: 20.4 µM | IC50 [19]: > 36.5 µM | IC50 [20]: 22.1 µM | inhibition of kinases [21]: ≤ 30%
